The record followed here is patent US20120214840A1, “INDOLIZINE INHIBITORS OF 5-LIPOXYGENASE” (PANMIRA PHARMACEUTICALS, LLC, priority 2009, published 2012).

Some results are limits rather than exact numbers.

The subject of the first experiment is LTB4 in human leukocytes. In words: Human Leukocyte LTB4 Inhibition Assay. It is filed as cell-based. As to conditions: Leukocyte, 0.5 h; human leukocytes stimulated with calcium ionophore, 30 minutes at 37° C., LTB4 by ELISA; read-out: LTB4 HLA IC50. The procedure:
A non-limiting example of a human leukocyte inhibition assay is as follows: Blood was drawn from consenting human volunteers into heparanized tubes and 3% dextran 0.9% saline ⅓ rd volume added. After sedimentation of red blood cells a hypotonic lysis of remaining red blood cells was performed and leukocytes sedimented at 1200 rpm. The pellet was resuspended at 1.25×10^5 cells/ml and aliquoted into wells containing 1 μL 100% DMSO (vehicle) or 2.5 μL drug in 100% DMSO. Samples were incubated for 5 minutes at 37° C. and 2 μL calcium ionophore […] (from a 50 mM DMSO stock diluted just prior to the assay in Hanks balanced salt solution (Invitrogen)) to 1.25 mM) was added, solutions mixed and incubated for 30 minutes at 37° C. Samples were centrifuged at 1,200 rpm (˜200×g) for 10 minutes at 4° C., plasma removed and a 1:4 dilution assayed for LTB4 concentration using ELISA (Assay Designs). Drug concentrations to achieve 50% inhibition (IC50's) of vehicle LTB4 were determined by nonlinear regression (Graphpad Prism) of % inhibition versus log drug concentration.
(In general: ELISA stands for enzyme-linked immunosorbent assay.)
As a reminder, the IC50 is the midpoint of a concentration-inhibition curve. For `CCC(O)(c1cn(Cc2ccc3c(C(C)C)c(C(N)=O)cn3c2)nn1)C(F)(F)F` (centres unmarked) [Compound 1-9, 6-[4-(1-Hydroxy-1-trifluoromethyl-propyl)-[1,2,3]triazol-1-ylmethyl]-1-isopropyl-indolizine-2-carboxylic acid amide], the concentration for half-maximal inhibition (IC50) was more than 1000 nM.

Regarding `CCC(O)(c1cn(Cc2ccc3c(-c4ccc(OC)nc4)c(C(N)=O)cn3c2)nn1)C(F)(F)F` (centres unmarked) [Compound 1-14, 6-[4-(1-Hydroxy-1-trifluoromethyl-propyl)-[1,2,3]triazol-1-ylmethyl]-1-(6-methoxy-pyridin-3-yl)-indolizine-2-carboxylic acid amide], the IC50 is less than 300 nM. `CCC(O)(c1cn(Cc2ccc3c(-c4ccc(F)cc4)c(C(N)=O)cn3c2)nn1)C(F)(F)F` (single isomer, unassigned; enantiomer a) [Compound 1-5, 1-(4-Fluoro-phenyl)-6-[4-(1-hydroxy-1-trifluoromethyl-propyl)-[1,2,3]triazol-1-ylmethyl]-indolizine-2-carboxylic acid amide (Enantiomer A)]: the IC50 is less than 300 nM.

With `CCOC(=O)c1cn2cc(Cn3cc(C(O)(CC)C(F)(F)F)nn3)ccc2c1C(C)C` (centres unmarked) [Compound 1-8, 6-[4-(1-Hydroxy-1-trifluoromethyl-propyl)-[1,2,3]triazol-1-ylmethyl]-1-isopropyl-indolizine-2-carboxylic acid ethyl ester], the 50% inhibitory concentration (IC50) is less than 300 nM. Take `CCC(O)(c1cn(Cc2ccc3c(-c4ccc(F)cc4)c(C(N)=O)cn3c2)nn1)C(F)(F)F` (centres unmarked) [Compound 1-2, 1-(4-Fluoro-phenyl)-6-[4-(1-hydroxy-1-trifluoromethyl-propyl)-[1,2,3]triazol-1-ylmethyl]-indolizine-2-carboxylic acid amide]: the IC50 is less than 300 nM.

In the case of `CCC(O)(c1cn(Cc2ccc3c(C(C)C)c(C#N)cn3c2)nn1)C(F)(F)F` (centres unmarked) [Compound 1-10, 6-[4-(1-Hydroxy-1-trifluoromethyl-propyl)-[1,2,3]triazol-1-ylmethyl]-1-isopropyl-indolizine-2-carbonitrile], the concentration for half-maximal inhibition (IC50) is less than 300 nM. Consider `CCOC(=O)c1cn2cc(CNc3nnc(C(O)(CC)C(F)(F)F)o3)ccc2c1-c1ccc(F)cc1` (centres unmarked) [Compound 1-4, 1-(4-Fluoro-phenyl)-6-{[5-(1-hydroxy-1-trifluoromethyl-propyl)-[1,3,4]oxadiazol-2-ylamino]-methyl}-indolizine-2-carboxylic acid ethyl ester], for which the IC50 is less than 300 nM. As to `CCC(O)(c1cn(Cc2ccc3c(-c4ccc(F)cc4)c(C(N)=O)nn3c2)nn1)C(F)(F)F` (centres unmarked) [Compound 1-12, 3-(4-Fluoro-phenyl)-6-[4-(1-hydroxy-1-trifluoromethyl-propyl)-[1,2,3]-triazol-1-ylmethyl]-pyrazolo[1,5-a]pyridine-2-carboxylic acid amide], the IC50 was less than 300 nM. As to `CCC(O)(c1cn(Cc2ccc3c(-c4ccc(F)cc4)c(C#N)nn3c2)nn1)C(F)(F)F` (centres unmarked) [Compound 1-11, 3-(4-Fluoro-phenyl)-6-[4-(1-hydroxy-1-trifluoromethyl-propyl)-[1,2,3]triazol-1-ylmethyl]-pyrazolo[1,5-a]pyridine-2-carbonitrile], the IC50 was less than 300 nM.

Consider `CCC(O)(c1cn(Cc2ccc3c(-c4ccc(F)cc4)c(C#N)cn3c2)nn1)C(F)(F)F` (centres unmarked) [Compound 1-3, 1-(4-Fluoro-phenyl)-6-[4-(1-hydroxy-1-trifluoromethyl-propyl)-[1,2,3]triazol-1-ylmethyl]-indolizine-2-carbonitrile], for which the IC50 was less than 300 nM. Take `CCOC(=O)c1cn2cc(Cn3cc(C(O)(CC)C(F)(F)F)nn3)ccc2c1-c1ccc(F)cc1` (centres unmarked) [Compound 1-1, 1-(4-Fluoro-phenyl)-6-[4-(1-hydroxy-1-trifluoromethyl-propyl)-[1,2,3]-triazol-1-ylmethyl]-indolizine-2-carboxylic acid ethyl ester]: the half-maximal inhibitory concentration (IC50) is less than 300 nM. On the same count and under the same terms, for `C=C(C)c1c(C(=O)OCC)cn2cc(Cn3cc(C(O)(CC)C(F)(F)F)nn3)ccc12` (centres unmarked) [Compound 1-7, 6-[4-(1-Hydroxy-1-trifluoromethyl-propyl)-[1,2,3]triazol-1-ylmethyl]-1-isopropenyl-indolizine-2-carboxylic acid ethyl ester] the value was less than 300 nM; for `CCOC(=O)c1cn2cc(Cn3cc(C(O)(CC)C(F)(F)F)nn3)ccc2c1-c1ccc(OC)nc1` (centres unmarked) [Compound 1-13, 6-[4-(1-Hydroxy-1-trifluoromethyl-propyl)-[1,2,3]triazol-1-ylmethyl]-1-(6-methoxy-pyridin-3-yl)-indolizine-2-carboxylic acid ethyl ester], less than 300 nM.

The same experiment, now with this note: human leukocytes stimulated with calcium ionophore, 30 minutes at 37° C., LTB4 by ELISA; read-out: LTB4 HLA IC50.
Consider `CCC(O)(c1cn(Cc2ccc3c(-c4ccc(F)cc4)c(C(N)=O)cn3c2)nn1)C(F)(F)F` (single isomer, unassigned; enantiomer b) [Compound 1-6, 1-(4-Fluoro-phenyl)-6-[4-(1-hydroxy-1-trifluoromethyl-propyl)-[1,2,3]triazol-1-ylmethyl]-indolizine-2-carboxylic acid amide (Enantiomer B)], for which the IC50 is less than 300 nM.
